The text below walks through data of US8318641B2, “Systems and methods for the detection of biomarkers” (priority 2010, dated 2012).

Assay [1] concerns peroxidase. As to the kind of experiment: Peroxidase assay in saliva (Amplex Red). The conditions noted are these: test compound prepared at 500 ppm, 30 minutes, FIGS. 26-29. The format is biochemical. As to the method: To determine the effect of various GRAS compounds as inhibitors of peroxidase activity, a standard assay using Amplex® Red (Life Technologies), which releases a fluorescent oxidation product.
The test compounds, such as GRAS materials or cocktails of same, were prepared at a concentration of 500 ppm in distilled water. For the assay, 50 μl samples of test compounds were mixed with 20-30 μl of saliva (either “pooled” or “unpooled”) prior to the addition of Amplex® Red. […] Reactions were allowed to run for 30 minutes during these assays.

For assay [2], the target named is T1, Lysozyme (Homo sapiens, UniProt P61626).
T1 sequence (P61626 19-148): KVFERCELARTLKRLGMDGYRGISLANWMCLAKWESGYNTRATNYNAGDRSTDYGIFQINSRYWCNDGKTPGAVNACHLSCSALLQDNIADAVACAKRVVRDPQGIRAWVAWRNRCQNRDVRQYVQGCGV
As to the kind of experiment: Lysozyme inhibition saliva screening (fluorescein-labeled Micrococcus lysodeikticus). The class given is biochemical. The settings on record: 100% saliva samples (data not shown). The text has this: Further details of these five compounds may also be seen in Table 5.

Assay [3] addresses T2, α-amylase (Homo sapiens, UniProt P0DUB6).
T2 sequence (P0DUB6 16-511): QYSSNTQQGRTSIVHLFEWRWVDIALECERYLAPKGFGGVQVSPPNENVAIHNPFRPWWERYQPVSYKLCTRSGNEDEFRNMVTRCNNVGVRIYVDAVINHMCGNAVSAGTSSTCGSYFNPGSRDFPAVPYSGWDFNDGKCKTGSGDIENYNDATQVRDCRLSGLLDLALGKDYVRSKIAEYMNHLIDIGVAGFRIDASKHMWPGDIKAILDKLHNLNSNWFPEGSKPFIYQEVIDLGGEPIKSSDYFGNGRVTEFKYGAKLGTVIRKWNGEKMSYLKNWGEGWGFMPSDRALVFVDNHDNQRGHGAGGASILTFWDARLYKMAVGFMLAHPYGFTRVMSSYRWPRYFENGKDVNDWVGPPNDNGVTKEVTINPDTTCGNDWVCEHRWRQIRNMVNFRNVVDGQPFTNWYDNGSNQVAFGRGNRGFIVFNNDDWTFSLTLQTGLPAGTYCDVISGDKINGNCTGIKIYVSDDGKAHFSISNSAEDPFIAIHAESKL
Description: α-Amylase inhibition saliva screening (2-chloro-p-nitrophenol-maltotriose substrate, absorbance 405 nm). The class given is biochemical. The source says:
Further details of these five compounds may also be seen in Table 4.

Assay [4] has as its system protease. The settings on record: cited from earlier work.

As for `Cn1c(=O)c2c(ncn2C)n(C)c1=O` [CDI #33, Caffeine], the peroxidase inhibition result in assay [1] is given as “significant peroxidase inhibition capabilities”.

In the case of `CC(=O)O` [CDI-047, Acetic acid], the Lysozyme inhibition entry in assay [2] is recorded as “shown to inhibit Lysozyme”.

Consider Aluminum sulfate hydrate [CDI-34], for which the “Ave (absorbance at 405 nm)” value in assay [3] (Time 0 min) was 0.40; in assay [3] (Time 5 min), 0.50; in assay [3] (Time 15 min) it was 0.56.

Regarding “Aluminum potassium sulfate dodecahydrate [CDI-42]”, the “Ave (absorbance at 405 nm)” value in assay [3] (Time 0 min) is on record as 0.92. Further, the peroxidase inhibition result in assay [1] is given as “significant peroxidase inhibition capabilities”.

Regarding `COc1ccc(O)c(C(C)(C)C)c1` [CDI-039, 3-tert--butyl-hydroxyanisole], the peroxidase inhibition result in assay [1] was “significant peroxidase inhibition capabilities”.

B1: Soybeans: primary soybean protease inhibitor, 20.7-22.3 kDa (protein, UniProt P01070 25-205, looked up)
Trypsin inhibitor A: DFVLDNEGNPLENGGTYYILSDITAFGGIRAAPTGNERCPLTVVQSRNELDKGIGTIISSPYRIRFIAEGHPLSLKFDSFAVIMLCVGIPTEWSVVEDLPEGPAVKIGENKDAMDGWFRLERVSDDEFNNYKLVFCPQQAEDDKCGDIGISIDHDDGTRRLVVSKNKPLVVQFQKLDKESL
On to B1, for which, in assay [4], the Inhibitory power is given as 1.2 times times weight.
